Columns and labels:
Details in all cases: 72 h
Calu-3 [1] = assay: cell viability relative to DMSO; higher = less toxic
U2OS [2] = assay: as above
Caco-2 [3] = assay: as above
HepG2 [4] = assay: as above
Vero E6 [5] = assay: as above
Calu-3 [6] = assay: relative viability EC50 (midpoint between 100% and the lowest measured viability); higher = less toxic
U2OS [7] = assay: as above
Caco-2 [8] = assay: as above
HepG2 [9] = assay: as above
Vero E6 [10] = assay: as above
Calu-3 [11] = assay: drug sensitivity score (DSS) for viability; higher = more toxic; extreme values may be limits of the assay
U2OS [12] = assay: as above
Caco-2 [13] = assay: as above
HepG2 [14] = assay: as above
Vero E6 [15] = assay: as above

| Structure (SMILES) | cell viability (Calu-3 [1]; 1 nM) | cell viability (Calu-3 [1]; 10 nM) | cell viability (Calu-3 [1]; 100 nM) | cell viability (Calu-3 [1]; 1000 nM) | cell viability (Calu-3 [1]; 10000 nM) | cell viability (U2OS [2]; 1 nM) | cell viability (U2OS [2]; 10 nM) | cell viability (U2OS [2]; 100 nM) | cell viability (U2OS [2]; 1000 nM) | cell viability (U2OS [2]; 10000 nM) | cell viability (Caco-2 [3]; 1 nM) | cell viability (Caco-2 [3]; 10 nM) | cell viability (Caco-2 [3]; 100 nM) | cell viability (Caco-2 [3]; 1000 nM) | cell viability (Caco-2 [3]; 10000 nM) | cell viability (HepG2 [4]; 1 nM) | cell viability (HepG2 [4]; 10 nM) | cell viability (HepG2 [4]; 100 nM) | cell viability (HepG2 [4]; 1000 nM) | cell viability (HepG2 [4]; 10000 nM) | cell viability (Vero E6 [5]; 1 nM) | cell viability (Vero E6 [5]; 10 nM) | cell viability (Vero E6 [5]; 100 nM) | cell viability (Vero E6 [5]; 1000 nM) | cell viability (Vero E6 [5]; 10000 nM) | relative viability EC50 (Calu-3 [6]) | relative viability EC50 (U2OS [7]) | relative viability EC50 (Caco-2 [8]) | relative viability EC50 (HepG2 [9]) | relative viability EC50 (Vero E6 [10]) | drug sensitivity score (Calu-3 [11]) | drug sensitivity score (U2OS [12]) | drug sensitivity score (Caco-2 [13]) | drug sensitivity score (HepG2 [14]) | drug sensitivity score (Vero E6 [15]) |
| --- | --- | --- | --- | --- | --- | --- | --- | --- | --- | --- | --- | --- | --- | --- | --- | --- | --- | --- | --- | --- | --- | --- | --- | --- | --- | --- | --- | --- | --- | --- | --- | --- | --- | --- | --- |
| CCCNC(C)(C)COC(=O)c1ccccc1 [meprylcaine] | 102% | 112% | 105% | 99.9% | 94.5% | 98.6% | 98.2% | 103% | 97.7% | 99.5% | 98.1% | 104% | 94.3% | 106% | 96.6% | 86.3% | 100% | 94% | 95.6% | 91.9% | 96% | 103% | 91.8% | 95.2% | 103% | > 10 µM | > 10 µM | > 10 µM | > 10 µM | > 10 µM | 0 | 0 | 0 | 0 | 0 |
| CN1C[C@H](CNC(=O)OCc2ccccc2)C[C@@H]2c3cccc4c3c(cn4C)C[C@H]21 [metergoline] | 101% | 92.2% | 101% | 89.8% | 104% | 95.4% | 99.1% | 104% | 96.4% | 95.8% | 116% | 91.3% | 101% | 88.1% | 99.6% | 101% | 98.5% | 100% | 96.9% | 84.6% | 105% | 105% | 95.2% | 94% | 84.2% | > 10 µM | > 10 µM | > 10 µM | > 10 µM | > 10 µM | 0 | 0 | 0 | 0.6 | 0.4 |
| CC(=O)Nc1c(I)c(C(=O)O)c(I)c(N(C)C(C)=O)c1I [metrizoic-acid] | 96.6% | 103% | 98.3% | 94.9% | 107% | 97.6% | 105% | 95.9% | 105% | 96.5% | 92% | 102% | 94% | 97.3% | 92.8% | 107% | 104% | 105% | 96.6% | 110% | 104% | 98.6% | 105% | 98.8% | 101% | > 10 µM | > 10 µM | > 10 µM | > 10 µM | > 10 µM | 0 | 0 | 0 | 0 | 0 |
| Cc1cc(-c2ccccc2)nnc1NCCN1CCOCC1 [minaprine] | 102% | 96.8% | 99.1% | 89.4% | 91.7% | 104% | 97.8% | 99.6% | 98.9% | 103% | 92% | 96% | 98.4% | 96.1% | 89.3% | 96.3% | 99.6% | 96.8% | 94.2% | 93.6% | 101% | 98.1% | 98.8% | 100% | 94.5% | > 10 µM | > 10 µM | > 10 µM | > 10 µM | > 10 µM | 0.2 | 0 | 0 | 0 | 0 |
| Nc1cccc2c(=O)[nH][nH]c(=O)c12 [monosodium-alpha-luminol] | 98.5% | 100% | 97.4% | 105% | 105% | 98% | 102% | 95.4% | 102% | 103% | 93% | 88.6% | 90.3% | 92.7% | 97.7% | 95.9% | 89.7% | 104% | 89.8% | 113% | 102% | 92.7% | 96.1% | 95.2% | 106% | > 10 µM | > 10 µM | > 10 µM | > 10 µM | > 10 µM | 0 | 0 | 0 | 0 | 0 |
| CO[C@@]1(NC(=O)C(C(=O)O)c2ccc(O)cc2)C(=O)N2C(C(=O)O)=C(CSc3nnnn3C)CO[C@@H]21 (stereo not given in full) [moxalactam] | 93.2% | 100% | 92.1% | 105% | 98% | 94.8% | 98.2% | 96.1% | 103% | 104% | 92.6% | 99.7% | 96.7% | 95.9% | 105% | 102% | 95.2% | 117% | 84.9% | 117% | 98.1% | 97.5% | 98.1% | 92.7% | 100% | > 10 µM | > 10 µM | > 10 µM | > 10 µM | > 10 µM | 0 | 0 | 0 | 0 | 0 |
| COc1ccc2cc(CCC(C)=O)ccc2c1 [nabumetone] | 98.2% | 90.6% | 86.7% | 106% | 95.4% | 98.5% | 95.2% | 99.9% | 93.3% | 101% | 111% | 90.4% | 89.2% | 97.4% | 94.5% | 99.8% | 97.8% | 105% | 90.8% | 95.8% | 101% | 104% | 101% | 93.8% | 88.1% | > 10 µM | > 10 µM | > 10 µM | > 10 µM | > 10 µM | 0 | 0 | 0 | 0 | 0.3 |
| COc1ccc(-c2nc(-c3ccc(-c4cccc(Cl)c4)o3)[nH]c2-c2ccc(OC)cc2)cc1 [neurodazine] | 91.4% | 96% | 97.2% | 79.6% | 89.6% | 100% | 99% | 105% | 96.3% | 96.1% | 106% | 94.9% | 109% | 103% | 84.4% | 112% | 99.5% | 96.3% | 98.2% | 86.2% | 109% | 103% | 98.4% | 102% | 96.6% | > 10 µM | > 10 µM | > 10 µM | > 10 µM | > 10 µM | 0.6 | 0 | 0.2 | 0.3 | 0 |
| O=C1N=C2SCCN2C(=O)C1Cc1ccc(Cl)cc1 (stereo not given) [nuclomedone] | 91.5% | 104% | 95.5% | 99.9% | 90.5% | 98.4% | 97.6% | 95.6% | 95.6% | 96.4% | 93.1% | 96.5% | 91.9% | 92.2% | 94.9% | 93.7% | 89.1% | 95.3% | 96.4% | 92% | 96.9% | 95.5% | 95.1% | 104% | 93.4% | > 10 µM | > 10 µM | > 10 µM | > 10 µM | > 10 µM | 0 | 0 | 0 | 0 | 0 |
| CCCCCCCC/C=C\CCCCCCCC(=O)NCCO [oleoylethanolamide] | 97.2% | 101% | 97.1% | 102% | 101% | 99.8% | 100% | 97% | 103% | 103% | 86.2% | 99.2% | 92.3% | 104% | 106% | 92.1% | 96.1% | 103% | 90.2% | 104% | 106% | 102% | 105% | 96.4% | 103% | > 10 µM | > 10 µM | > 10 µM | > 10 µM | > 10 µM | 0 | 0 | 0 | 0 | 0 |
| COc1cccc(C(=O)CCN[C@@H](C)[C@H](O)c2ccccc2)c1 [oxyfedrine] | 86.3% | 98.6% | 113% | 95.6% | 107% | 97.8% | 103% | 98.5% | 99.9% | 95.4% | 99.3% | 101% | 108% | 102% | 95.8% | 101% | 105% | 98.9% | 91.3% | 79.8% | 103% | 99.8% | 99.2% | 104% | 101% | > 10 µM | > 10 µM | > 10 µM | > 10 µM | > 10 µM | 0 | 0 | 0 | 1.3 | 0 |
| CC(=O)CCCCn1c(=O)c2c(ncn2C)n(C)c1=O [pentoxifylline] | 99.7% | 95% | 104% | 95.8% | 98.1% | 101% | 96.1% | 102% | 94.2% | 100% | 98.1% | 115% | 97% | 114% | 89.1% | 88.1% | 98.5% | 110% | 94.3% | 106% | 104% | 110% | 108% | 108% | 99.2% | > 10 µM | > 10 µM | > 10 µM | > 10 µM | > 10 µM | 0 | 0 | 0 | 0 | 0 |
| O=C1OC(c2ccc(O)cc2)(c2ccc(O)cc2)c2ccccc21 [phenolphthalein] | 96.1% | 94.8% | 94.2% | 102% | 102% | 99.1% | 96.1% | 99.7% | 97% | 105% | 86.3% | 77.8% | 99.7% | 93.2% | 102% | 131% | 76.1% | 112% | 105% | 119% | 95.8% | 93.2% | 87.4% | 95.3% | 107% | > 10 µM | > 10 µM | > 10 µM | > 10 µM | > 10 µM | 0 | 0 | 0 | 0 | 0 |
| O=C(CCc1ccc(O)cc1)c1c(O)cc(O)cc1O[C@@H]1O[C@H](CO)[C@@H](O)[C@H](O)[C@H]1O [phlorizin] | 89.7% | 95.5% | 93.2% | 94.3% | 95.3% | 96.7% | 98.5% | 93.3% | 104% | 94.5% | 94.3% | 118% | 98.3% | 97.7% | 93.7% | 107% | 87.5% | 94.9% | 96.9% | 106% | 96.4% | 97.9% | 98.4% | 96.7% | 97.3% | > 10 µM | > 10 µM | > 10 µM | > 10 µM | > 10 µM | 0 | 0 | 0 | 0 | 0 |

From the supplement of paper PMC13380429
